Data published in patent publication US20050238580A1 (priority 2002, published 2005).

Experiments:
[1] = target: T1, intestinal lactase (Homo sapiens, UniProt P09848); test: Excretion of xylose in urine of adult human volunteers after oral 4-galactosyl-xylose, colorimetric titration with fluoroglucinol; format: in vivo
T1 construct: from tissue; host or cells: small-intestinal mucous membrane of living adult human volunteers (in vivo)
Experimental: The methodology consists of the oral administration of an aqueous solution of 4-galactosyl-xylose to humans after at least 8 hours of fasting. The amount of xylose present in the urine excreted is evaluated as of then, after a specific period of time. The methodology can be carried out likewise by evaluating the presence of xylose in blood evaluating it in plasma, or blood serum, prepared from a blood sample extracted after a period of time, after the intake of the disaccharide. The titration of xylose can be done by means of calorimetric analysis based on the reaction with fluoroglucinol and using as a target, either the basal urine or else the basal plasma or the basal blood serum, depending on the methodology that is used. Once the intake of 4-galactosyl-xylose has taken place, it is hydrolyzed by the intestinal lactase, in such a way that the products of this enzymatic reaction, galactose and xylose, are absorbed into the blood through the intestinal mucous membrane.
4-galactosyl-xylose is an in vivo substrate of human intestinal lactase. This has been shown in the first place by orally administering 1 g of 4-galactosyl-xylose dissolved in 50 ml of water to an adult volunteer (individual 1) who had fasted for 8 hours and with a normal tolerance to milk and milk products, in other words, with lactose tolerance. A basal urine sample was taken from this individual immediately before the intake of 4-galactosyl-xylose and urine was again collected after the intake thereof every hour for 8 hours, each sample showing the total urine excreted in each period of time. Xylose was titrated in all the samples by means of calorimetric analysis based on the reaction with fluoroglucinol and using basal urine as the target. […] The results of this experiment appear compiled in FIG. 3, where the amount of xylose evaluated in each sample is represented (white circles) and the amount of xylose that is being accumulated in urine over time is represented (black circles), calculated by adding to the amount of xylose evaluated in each sample, the amounts evaluated in all the preceding samples. In […] one can see: 1) That xylose is excreted in the urine of this individual after oral administration of 4-galactosyl-xylose; 2) That the excretion of xylose in urine was maximum after 2 hours and it was progressively accumulated in the urine after administration of this compound.
Excretion of xylose in urine by adult human volunteers with lactose tolerance varies according to the amount of the 4-galactosyl-xylose intake. This has been shown by administering 0.25 g, 0.5 g and 3 g of 4-galactosyl-xylose to an adult volunteer with lactose tolerance (individual 1, Example 4) and to an adult volunteer with lactose tolerance (individual 2, Example 5) under the same conditions as those described in Example 1 and likewise titrating xylose calorimetrically with fluoroglucinol in the urine excreted by both volunteers over time after the intake of the disaccharide. A free period of around one week was left between each intake of 4-galactosyl-xylose by the same individual. […] The results of these experiments are compiled in FIG. 4 panel A (for individual 1 and Example 4) and in FIG. 4 panel B (for individual 2 and Example 5), wherein the amount of xylose accumulated in urine after the intake of 4-galactosyl-xylose for each administered dose is represented. FIG. 4A includes the data obtained with the same individual after an intake of 1 g of the disaccharide coming from FIG. 3 so that a comparison can be made with the rest of the administered doses. In these FIGS. 4A and 4B one can see: 1) That the excretion of xylose in urine over time after the intake of 4-galactosyl-xylose increased as the amount administered to individual 1 (FIG. 4A), as well as to individual 2 (FIG. 4B) increased; That a dose of 0.25 g 4-galactosyl-xylose permitted easy detection of the presence of xylose in urine in either of these two individuals. […]

[2] = target: T1, intestinal lactase; test: Xylose in urine of human volunteers after oral 4-galactosyl-xylose, evaluated by gas chromatography; format: in vivo; conditions: 0.25 g oral
From the text: Excretion of xylose in urine after administration of 0.25 g of 4-galactose-xylose to subjects with lactose tolerance, and its reduction in hypolactasic individuals with lactose intolerance is likewise observed by the evaluation technique of xylose different from the colorimetric reaction with fluoroglucinol. This has been shown by administering 0.25 g of 4-galactosyl-xylose to a volunteer with lactose tolerance [individual 1 (also studied in Example 3), Example 15] on one hand, and on the other hand, to a volunteer with lactose intolerance having an intense intestinal lactase deficiency [individual 12 (also studied in Example 12), Example 16], and evaluating xylose by gas chromatography in the total urine collected 3 hours after the intake of the disaccharide with a chromatograph equipped with a flame ionization detector and a 12 m long glass spiral column with an inside diameter of 0.2 mm and a thickness of 0.3 μm. The presence of xylose in urine was detected in its trimethylsilyl derivative form. For this purpose the urine sample was lyophilized and dissolved in 20 μl of pyridine containing 1 mM of benzyl-β-D-xylopyranoside as an internal reference. Then another 20 μl of N-trimethylsilyl imidazole were added as a sililating agent. The mixture was treated with ultrasound for one minute and heated at 60° C. for 30 minutes. Then 1-2 μl of the sample was injected into the gas chromatograph. The temperature of the injector and the detector used was 250° C. and the temperature gradient in the column was the following: 2 minutes at 180° C. and a 5° C. increase per minute until 250° C. was reached. This temperature was maintained for 15 minutes. The concentration of xylose in each sample was calculated from the areas of the peaks corresponding to the chromatograms. The results of these experiments are compiled in FIG. 7, wherein the chromatograms corresponding to the samples of basal urine and of urine taken during 3 hours from an individual with lactose tolerance and an individual with lactose intolerance are shown. […]

T1 sequence (P09848 869-1927): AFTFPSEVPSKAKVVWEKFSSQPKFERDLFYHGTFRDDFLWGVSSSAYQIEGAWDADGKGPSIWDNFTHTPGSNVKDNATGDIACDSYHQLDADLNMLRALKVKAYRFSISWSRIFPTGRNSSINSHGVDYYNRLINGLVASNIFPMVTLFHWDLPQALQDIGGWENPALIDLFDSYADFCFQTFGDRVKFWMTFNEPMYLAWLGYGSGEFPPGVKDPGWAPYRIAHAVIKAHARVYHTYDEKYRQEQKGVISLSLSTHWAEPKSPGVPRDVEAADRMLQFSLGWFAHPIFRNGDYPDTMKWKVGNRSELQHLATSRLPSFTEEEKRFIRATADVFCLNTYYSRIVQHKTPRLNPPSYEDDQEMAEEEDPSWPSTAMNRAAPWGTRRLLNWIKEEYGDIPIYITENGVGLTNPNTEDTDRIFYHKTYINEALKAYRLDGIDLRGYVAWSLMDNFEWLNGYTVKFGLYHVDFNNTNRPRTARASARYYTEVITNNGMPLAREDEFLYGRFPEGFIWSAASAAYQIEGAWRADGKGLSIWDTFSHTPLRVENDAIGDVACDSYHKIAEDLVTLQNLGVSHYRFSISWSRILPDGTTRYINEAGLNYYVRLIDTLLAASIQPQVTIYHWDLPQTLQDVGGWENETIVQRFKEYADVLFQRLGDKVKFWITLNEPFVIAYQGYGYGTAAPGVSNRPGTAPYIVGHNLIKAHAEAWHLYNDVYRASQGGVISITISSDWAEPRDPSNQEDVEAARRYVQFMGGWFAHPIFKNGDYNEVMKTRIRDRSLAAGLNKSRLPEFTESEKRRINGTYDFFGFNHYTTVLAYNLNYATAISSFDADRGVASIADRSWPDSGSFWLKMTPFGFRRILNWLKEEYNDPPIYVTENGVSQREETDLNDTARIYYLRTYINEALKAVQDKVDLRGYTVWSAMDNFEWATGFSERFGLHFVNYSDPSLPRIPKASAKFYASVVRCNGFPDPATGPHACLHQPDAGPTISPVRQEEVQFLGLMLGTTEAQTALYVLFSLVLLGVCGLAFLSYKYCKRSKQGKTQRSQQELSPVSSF

- reduction of xylose in urine, individual 12 versus individual 1 ([2]; urine of 3 hours): 92%
Structure (SMILES): OCC1O[C@@H](O[C@@H]2COC(O)C(O)[C@H]2O)C(O)[C@@H](O)[C@H]1O (some centres unmarked)
- total xylose in urine 8 hours after intake, average value ([1]; female volunteers with lactose tolerance, 0.25 g oral): 23.5 ± 2.0 mg
- reduction of xylose in urine versus average of tolerant females ([1]; individual 5, 0.25 g oral, 8 hours): 83%
- total xylose in urine 8 hours after intake ([1]; individual 5, person with lactose intolerance from birth, 0.25 g oral): 4.08 mg
- reduction of xylose in urine versus average of tolerant males ([1]; individual 12, 0.25 g oral, 8 hours): 96%
- total xylose in urine 8 hours after intake ([1]; individual 12, hypolactasic person with lactose intolerance, 0.25 g oral): 1.33 mg
- total xylose excreted in urine after 8 hours ([1]; individual 13, person with allergy to milk components, 0.25 g oral): the same total amount as the average of females with lactose tolerance
- dose dependence of excretion of xylose in urine ([1]; individuals 1 and 2 with lactose tolerance, oral doses of 0.25 g, 0.5 g, 1 g and 3 g): increased with the amount
- total xylose in urine 8 hours after intake, average value ([1]; male volunteers with lactose tolerance, 0.25 g oral): 35.7 ± 2.0 mg
- total amount of xylose in urine of 3 hours ([2]; hypolactasic individual 12 with lactose intolerance): 2.1 mg
- total xylose in urine of 3 hours ([2]; individual 1 with lactose tolerance): 25.2 mg
